Measurements from patent publication US20060223819A1, “Quinoline Derivatives as NK-3 Antagonists” (GlaxoSmithKline S.P.A. & Laboratoire, priority 2000, published 2006).

First: CC(C)[C@H](NC(=O)c1c(CN2CCNC(=O)C2)c(-c2ccccc2)nc2ccccc12)c1ccccc1 [Example 42, 3-(3-Oxo-piperazin-1-ylmethyl)-2-phenyl-quinoline-4-carboxylic acid ((S)-2-methyl-1-phenyl-propyl)-amide]
Second: C[C@H](NC(=O)c1c(CN2CCNC(=O)C2)c(-c2ccccc2F)nc2ccccc12)C1CCCCC1 [Example 46, 2-(2-Fluorophenyl)-3-(3-oxopiperazin-1-ylmethyl)-quinoline-4-carboxylic acid ((S)-1-cyclohexyl-ethyl)-amide]
The melting point of the first is lower: 137 °C for the first, 167 to 169 °C for the second.

First: C[C@H](NC(=O)c1c(CN2CCN(CCN3CCCCC3)C(=O)C2)c(-c2ccccc2)nc2ccccc12)C1CCCCC1 [Example 43, 3-[3-Oxo-4-(2-piperidin-1-ylethyl)piperazin-1-ylmethyl]-2-phenylquinoline-4-carboxylic acid ((S)-1-cyclohexylethyl)amide]
Second: C[C@H](NC(=O)c1c(CN2CCNC(=O)C2)c(-c2ccc(C(F)(F)F)cc2)nc2ccccc12)C1CCCCC1 [Example 45, 3-(3-Oxopiperazin-1-ylmethyl)-2-(4-trifluoromethylphenyl)quinoline-4-carboxylic acid ((S)-1-cyclohexylethyl)-amide]
The melting point of the first is lower: 160 °C for the first, 214 to 217 °C for the second.
